This is an account of results in US20080214563A1, “Benzimidazole Thiophene Compounds As Plk Modulators” (priority 2005, published 2008).

Each structure is given as a SMILES string.

A short description of series [1]: Intravenous pharmacokinetics in CD-1 mouse. Particulars: plasma, iv bolus, male CD-1 mouse, dose 1.9-7.4 mg/kg per compound (Table 3); for clearance: read-out: Plasma CL. The class given is in vivo. On the procedure: Preliminary investigation of the intravenous pharmacokinetics of compounds of invention were carried out in fed conscious CD-1 mouse. Compounds were formulated as 1-10 mg/kg, 5 mL/kg, 1-2 mg/mL solution (Table 3). Twenty one male mice (n=3 mice per time point) (˜30 g) received dose solution by bolus injection in the tail vein. The formulation for iv were either 20% beta cyclodextrin in saline pH 3.5-6 or PEG400:ethanol:saline (50:15:35 v/v). Blood samples (˜0.4 mL) were collected terminally by cardiac puncture following anesthetization in a CO2 chamber at 2, 15, 30, 60 min, 2, 4, and 6 h following iv administration. Blood samples were collected into tubes containing heparin and placed on crushed ice promptly after collection. Plasma was collected by centrifugation, frozen and stored at about −80° C. prior to analysis. Blood or plasma concentrations were determined by LC/MS/MS equipped with an electrospray ion source and using calibration curves for the appropriate matrix. The lower level of quantitation (LLQ) was 10 ng/mL. Blood or plasma concentration-time data were analyzed by non-compartmental methods using the computer program WinNonlin Professional (version 4.1). Area under the blood or plasma concentration-time curve (AUC) was calculated using the linear trapezoidal rule for each incremental trapezoid up to Cmax, and the log trapezoidal rule for each trapezoid thereafter. The terminal elimination rate constant (λz) was derived from the log-linear disposition phase of the concentration-time curve using least-squares regression analysis with visual inspection of the data to determine the appropriate number of terminal data points for regression analysis.
Following iv administration, the total body clearance (CL) was estimated. CL was calculated by dividing the dose by AUC(0−t). The clearance values were assigned as follows. Low <30 mL/min/kg, moderate 30-70 mL/min/kg, high >70 mL/min/kg. The assignment was based on hepatic blood flow i.e. hepatic blood flow of 0-30% low, 30-70% moderate and 70-100% high. The hepatic blood flow in mouse is ˜100 mL/min/kg.

Another series has as its system Colo 205. Briefly: Cell-Titer Glo Cell Growth Inhibition Assay, COLO205. The series is classed as cell-based. Particulars: Homo sapiens, CellTiter-Glo, 72 h, read-out: CTG COLO205 IC50. On the procedure: (§1) A549-L (human lung), BT474 (human breast), Colo 205 (human colon), H1299 (human lung), Hela (human cervix), HCT-116 (human colon), HN5 (human head and neck), HT29 (human colon), LNCap (human prostate), MCF7 (human breast), MDA-MB468 (human breast), MX-1 (human breast), RPMI 8226 (human peripheral blood), SKOV3 (human ovary) and P388 (murine leukemia) cell lines were cultured in RPMI1640 containing 10% fetal bovine serum at 37° C. in a 5% CO2 incubator. Cell lines were split into T75 flasks (Falcon #353136) two to three days prior to assay set up at density which yields approximately 70-80% confluency at time of harvest for assay. Cells were harvested using 0.25% trypsin with EDTA (Glibco/Invitrogen #25200-056), Cell counts were performed on cell suspensions using Trypan Blue exclusion staining, cells were then plated in 105 uL of culture media per well at the following densities in 96 well Costar #3916 black flat bottom plates: All human cell lines were plated at 500 cells/well. P388 were plated at 250 cells/well. All plates were placed at 5% CO2 37° C. overnight and then test compounds were added the following day. One plate of each cell type is treated with CellTiter-Glo (Promega #G7573) for a day 0 proliferation measurement and read as described below. The test compounds are prepared in clear U bottom polypropylene 96 well plates (Falcon #35-1190 with consecutive two fold dilutions. 9 uL of these dilutions was added into each well of the cell plates. The final concentration of DMSO in all wells is 0.15%. Cells were incubated at 37° C., 5% CO2 for 72 h. Following 72 h of incubation with compounds each plate was developed and read. CellTiter-Glo reagent was added to assay plates using a volume equivalent to the cell culture volume in the wells. Plates were shaken for approximately two minutes and incubated at room temperature for approximately 15 min and the chemiluminescent signal is read on the Victor V or Envison 2100 reader. […] Concentration of compound that inhibited 50% of cell growth (IC50) was analysis by 4 or 6 parameter fit of data using XLfit, value of no cell addition was subtracted from all samples for background.

Another series relates to HT29. In words: Cell-Titer Glo Cell Growth Inhibition Assay, HT29. The series is classed as cell-based. Particulars: Homo sapiens, HT-29, CellTiter-Glo, 72 h, read-out: CTG HT29 IC50. On the procedure: as §1
For orientation: ATP-based viability assays read luminescence as a measure of living cells.

A further series relates to MX-1. In words: Cell-Titer Glo Cell Growth Inhibition Assay, MX-1. The series is classed as cell-based. The settings on record: Homo sapiens, MX1, CellTiter-Glo, 72 h, read-out: CTG MX-1 IC50. The method, then: as §1
The next series deals with P388. Briefly: Cell-Titer Glo Cell Growth Inhibition Assay, P388. The class given is cell-based, murine. The settings on record: Mus musculus, CellTiter-Glo, 72 h, read-out: CTG P388 IC50. The method, then:
as §1

The test system of another series is A549-L. Briefly: Cell-Titer Glo Cell Growth Inhibition Assay, A549-L. The class given is cell-based. Particulars: Homo sapiens, CellTiter-Glo, 72 h, read-out: CTG A549-L IC50. The method, then: as §1
The next series deals with SKOV3. Briefly: Cell-Titer Glo Cell Growth Inhibition Assay, SKOV-3. The class given is cell-based. The settings on record: Homo sapiens, SK-OV-3, CellTiter-Glo, 72 h, read-out: CTG SKOV-3 IC50. The method, then:
as §1

In another series the test system is HCT-116. In words: Cell-Titer Glo Cell Growth Inhibition Assay, HCT116. The class given is cell-based. Particulars: Homo sapiens, CellTiter-Glo, 72 h, read-out: CTG HCT116 IC50. On the procedure:
as §1

In a further series the target is T1, PLK1 kinase domain (Homo sapiens, UniProt P53350).
T1 construct: made in house; host or cells: baculovirus infected T. ni cells
In words: Assay for Inhibition of PLK1 (33P SPA kinase assay). The settings on record: 2 nM PLK1 kinase domain, 1 μM ATP; read-out: PLK1 pIC50 (converted). The series is classed as biochemical. The method, then: All procedures were performed at 4° C. Cells were lysed in 50 mM HEPES, 200 mM NaCl, 50 mM imidazole, 5% glycerol; pH 7.5. The homogenate was centrifuged at 14K rpm in a SLA-1500 rotor for 1 h and the supernatant filtered through a 1.2 micron filter. The supernatant was loaded onto a Nickel chelating Sepharose (Amersham Pharmacia) column and washed with lysis buffer. Protein was eluted using 20%, 30% and 100% buffer B steps where buffer B is 50 mM HEPES, 200 mM NaCl, 300 mM imidazole, 5% glycerol; pH 7.5. Fractions containing PLK were determined by SDS-PAGE. Fractions containing PLK were diluted five-fold with 50 mM HEPES, 1 mM DTT, 5% glycerol; pH 7.5, then loaded on an SP Sepharose (Amersham Pharmacia) column. After washing the column with 50 mM HEPES, 1 mM DTT, 5% glycerol; pH 7.5, PLK was step eluted with 50 mM HEPES, 1 mM DTT, 500 mM NaCl; 5% glycerol; pH 7.5. PLK was concentrated using a 10 kDa molecular weight cutoff membrane and then loaded onto a Superdex 200 gel filtration (Amersham Pharmacia) column equilibrated in 25 mM HEPES, 1 mM DTT, 500 mM NaCl, 5% glycerol; pH 7.5. Fractions containing PLK were determined by SDS-PAGE. PLK was pooled, aliquoted and stored at −80° C. Samples were quality controlled using mass spectrometry, N-terminal sequencing and amino acid analysis.
B. Enzyme activity +/− inhibitors was determined as follows:
All measurements were obtained under conditions where signal production increased linearly with time and enzyme. Test compounds were added to white 384-well assay plates (0.1 μL for 10 μL and some 20 μl assays, 1 μL for some 20 μL assays) at variable known concentrations in 100% DMSO. DMSO (1-5% final, as appropriate) and EDTA (65 mM in reaction) were used as controls.
Reaction Mix (10 or 20 μL) was quickly added to each well immediately following addition of enzyme via automated liquid handlers and incubated 1-1.5 h at 22° C. The 20 μL enzymatic reactions were stopped with 50 μL of stop mix (50 mM EDTA, 4.0 mg/mL Streptavidin SPA beads in Standard Dulbecco's PBS (without Mg^2+ and Ca^2+), 50 μM ATP) per well. The 10 μL reactions were stopped with 10 μL of stop mix (50 mM EDTA, 3.0 mg/mL Streptavidin-coupled SPA Imaging Beads (“LeadSeeker”) in Standard Dulbecco's PBS (without Mg^2+ and Ca^2+), 50 μM ATP) per well. Plates were sealed with clear plastic seals, spun at 500×g for 1 min or settled overnight, and counted in Packard TopCount for 30 seconds/well (regular SPA) or imaged using a Viewlux imager (LeadSeeker SPA). Signal above background (EDTA controls) was converted to percent inhibition relative to that obtained in control (DMSO-only) wells.

T1 sequence (P53350 21-346): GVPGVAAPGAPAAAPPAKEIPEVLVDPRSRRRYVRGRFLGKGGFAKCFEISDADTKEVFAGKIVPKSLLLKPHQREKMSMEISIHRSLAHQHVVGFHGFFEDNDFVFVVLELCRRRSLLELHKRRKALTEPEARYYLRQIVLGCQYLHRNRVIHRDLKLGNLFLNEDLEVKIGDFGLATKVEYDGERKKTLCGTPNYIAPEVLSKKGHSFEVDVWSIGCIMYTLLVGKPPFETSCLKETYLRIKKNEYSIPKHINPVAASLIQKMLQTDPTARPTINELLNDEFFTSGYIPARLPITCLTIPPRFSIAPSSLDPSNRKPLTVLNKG

As for `C[C@@H](Oc1cc(-n2cnc3cc(-c4ccnc(N5CCN(C)CC5)c4)ccc32)sc1C(N)=O)c1ccccc1C(F)(F)F` [Example 2, 5-{5-[2-(4-Methyl-1-piperazinyl)-4-pyridinyl]-1H-benzimidazol-1-yl}-3-({(1R)-1-[2-(trifluoromethyl)phenyl]ethyl}oxy)-2-thiophenecarboxamide], the AUC(0-t) in series [1] was 2200 ng·h/mL. In addition, the clearance in series [1] is 32.3 mL/min/kg. In addition, the IC50 in the series with Colo 205 was less than 100 nM; with HT29, less than 100 nM; in the series with MX-1, less than 100 nM; in the series on P388 it was 100 to 1000 nM; with A549-L it was less than 100 nM; in the series with SKOV3, 100 to 1000 nM. The IC50 with HCT-116 is less than 100 nM.
Regarding `C[C@@H](Oc1cc(-n2cnc3cc(-c4ccnc(NC5CCN(C)CC5)c4)ccc32)sc1C(N)=O)c1ccccc1C(F)(F)F` [Example 3, 5-(5-{2-[(1-Methyl-4-piperidinyl)amino]-4-pyridinyl}-1H-benzimidazol-1-yl)-3-({(1R)-1-[2-(trifluoromethyl)phenyl]ethyl}oxy)-2-thiophenecarboxamide], the IC50 is less than 10 nM at PLK1 kinase domain; less than 100 nM in the series with Colo 205; less than 100 nM with HT29; less than 100 nM with MX-1; less than 100 nM with P388; less than 100 nM in the series with A549-L. The IC50 in the series with SKOV3 and in the series on HCT-116 was less than 100 nM in each case. The same molecule registered an AUC(0-t) in series [1] of 1850 ng·h/mL. Besides, the clearance in [1] came to 35.6 mL/min/kg.
Consider `C[C@@H](Oc1cc(-n2cnc3cc(-c4ccc(NC5CCN(C)CC5)nc4)ccc32)sc1C(N)=O)c1ccccc1Cl` [Example 6, 3-{[(1R)-1-(2-Chlorophenyl)ethyl]oxy}-5-(5-{6-[(1-methyl-4-piperidinyl)amino]-3-pyridinyl}-1H-benzimidazol-1-yl)-2-thiophenecarboxamide], for which, in [1], the AUC(0-t) is 2780 ng·h/mL. In [1], the clearance amounted to 18.6 mL/min/kg. The IC50 in the series on Colo 205 is less than 100 nM; in the series on HT29 it was less than 100 nM; in the series on MX-1 it was less than 100 nM; with P388 it was 100 to 1000 nM; in the series with A549-L it was less than 100 nM; in the series with SKOV3, less than 100 nM. Also, in the series on HCT-116, the IC50 was less than 100 nM.

In general, AUC(0-t) refers to exposure summed from dosing to a finite time, without extrapolation to infinity.
